{
  "source": "patent US7354940B2",
  "about": "“2,5-dioxoimidazolidin-4-yl acetamines and analogues as inhibitors of metalloproteinase mmp12” (AstraZeneca AB, priority 2002, dated 2008)",
  "data": [
    {"molecular_target": "T1, Recombinant human MMP12 catalytic domain (Homo sapiens, UniProt P39900)", "T1 construct": "Recombinant human MMP12 catalytic domain; made in house", "T1 sequence (P39900 106-263 limits assumed)": "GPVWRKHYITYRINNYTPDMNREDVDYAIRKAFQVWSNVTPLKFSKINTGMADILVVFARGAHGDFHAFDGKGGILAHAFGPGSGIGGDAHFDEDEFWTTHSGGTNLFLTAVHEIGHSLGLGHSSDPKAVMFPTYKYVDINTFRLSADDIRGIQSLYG", "test": "Isolated enzyme assay (MMP12 enzyme assay)", "type": "biochemical", "conditions": "fluorogenic substrate Mac-Pro-Cha-Gly-Nva-His-Ala-Dpa-NH2, 60 minutes at room temperature, pH 7.3", "experimental": "Recombinant human MMP12 catalytic domain may be expressed and purified as described by Parkar A. A. et al, (2000), Protein Expression and Purification, 20:152. The purified enzyme can be used to monitor inhibitors of activity as follows: MMP12 (50 ng/ml final concentration) is incubated for 60 minutes at room temperature with the synthetic substrate Mac-Pro-Cha-Gly-Nva-His-Ala-Dpa-NH2 in assay buffer (0.1M “Tris-HCl” (trade mark) buffer, pH 7.3 containing 0.1M NaCl, 20 mM CaCl2, 0.020 mM ZnCl and 0.05% (w/v) “Brij 35 ” (trade mark) detergent) in the presence (5 concentrations) or absence of inhibitors. Activity is determined by measuring the fluorescence at λex 320 nm and λem 405 nm. Percent inhibition is calculated as follows: % Inhibition is equal to the [Fluorescenceplus inhibitor−Fluorescencebackground] divided by the [Fluorescenceminus inhibitor−Fluorescenebackground].", "units": {"IC50": "nM"}, "values": [
      {"smiles": "CC(=O)c1ccc(-c2ccc(CCNC(=O)CC3NC(=O)NC3=O)cc2)cc1", "note": "(stereo not shown) [Example 26, N-[2-(4′-Acetyl-biphenyl-4-yl)ethyl]-2-(2,5-dioxoimidazolidin-4-yl)-acetamide]", "IC50": 17},
      {"smiles": "O=C(CC1NC(=O)NC1=O)NCCc1ccc(-c2cc3ccccc3o2)cc1", "note": "(stereo not shown) [Example 23, N-[2-(4-Benzofuran-2-yl-phenyl)ethyl]-2-(2,5dioxoimidazolidin-4-yl)-acetamide]", "IC50": 6},
      {"smiles": "O=C(CC1NC(=O)NC1=O)NCCc1ccc(-c2ccc(F)cc2)cc1", "note": "(stereo not shown) [Example 1, 2-(2,5-Dioxoimidazolidin-4-yl)-N-[2-(4′-fluoro-biphenyl-4-yl)-ethyl]-acetamide]", "IC50": 22},
      {"smiles": "N#Cc1ccc(-c2ccc(CCNC(=O)CC3NC(=O)NC3=O)cc2)cc1", "note": "(stereo not shown) [Example 2, N-[2-(4′-Cyano-biphenyl-4-yl)-ethyl]-2-(2,5-dioxoimidazolidin-4-yl)-acetamide]", "IC50": 7},
      {"smiles": "O=C(CC1NC(=O)NC1=O)NCCc1ccc(-c2ccccc2)cc1", "note": "(stereo not shown) [Example 5, N-(2-Biphenyl-4-yl-ethyl)-2-(2,5-dioxoimidazolidin-4-yl)-acetamide]", "IC50": 32},
      {"smiles": "Cc1cccc(-c2ccc(CCNC(=O)CC3NC(=O)NC3=O)cc2)c1", "note": "(stereo not shown) [Example 22, 2-(2,5-Dioxoimidazolidin-4-yl)-N-[2-(3′-methyl-biphenyl-4-yl)ethyl]-acetamide]", "IC50": 15},
      {"smiles": "COc1cccc(-c2ccc(CCNC(=O)CC3NC(=O)NC3=O)cc2)c1", "note": "(stereo not shown) [Example 24, 2-(2,5-Dioxoimidazolidin-4-yl)-N-[2-(3′-methoxy-biphenyl-4-yl)ethyl]-acetamide]", "IC50": 4},
      {"smiles": "O=C(CC1NC(=O)NC1=O)NCCc1ccc(-c2cc(Cl)cc(Cl)c2)cc1", "note": "(stereo not shown) [Example 21, N-[2-(3′,5′-Dichloro-biphenyl-4-yl)ethyl]-2-(2,5-dioxoimidazolidin-4-yl)-acetamide]", "IC50": 8},
      {"smiles": "O=C(CC1NC(=O)NC1=O)NCCc1ccc(-c2cccs2)cc1", "note": "(stereo not shown) [Example 14, 2-(2,5-Dioxoimidazolidin-4-yl)-N-[2-(4-thiophen-2-yl-phenyl)ethyl]-acetamide]", "IC50": 6},
      {"smiles": "O=C(CC1NC(=O)NC1=O)NCCc1ccc(-c2cc3ccccc3s2)cc1", "note": "(stereo not shown) [Example 27, N-[2-(4-Benzo[b]thiophen-2-yl-phenyl)ethyl]-2-(2,5-dioxoimidazolidin-4-yl)-acetamide]", "IC50": 5}
    ]}
  ]
}
